# pIC50: −log10 of the molar value.
# Key:
# STAT3 = target: T1, STAT3 (Homo sapiens, UniProt P40763); test: STAT3 Fluorescence Polarization (FP) Assay; type: binding; settings: recombinant STAT3 25 nM; probe 5-FAM-GpYLPQTV-NH2 2 nM; 45 min, room temperature; read-out: STAT3 FP IC50
# T1 construct: Recombinant STAT3 protein (STAT3(G127-1722))
# Method: STAT3 Fluorescence Polarization (FP) Assay
# An FP assay was developed to determine IC50 values for test substances. Recombinant STAT3 protein (STAT3(G127-1722)) at 25 nM was combined with a fluorescently labeled, phosphotyrosine peptide probe (5-FAM-GpYLPQTV-NH2) at 2 nM in FP buffer (10 mM HEPES pH 7.4, 50 mM NaCl, 1 mM EDTA, 0.05% Tween 20.2 mM DTT). 50 μL of STAT3-probe mixture was added to serial diluted compounds in black, 96-well plates (Greiner BioOne 655076) to a final concentration of 1% DMSO. Reaction components were mixed, and FP was measured after 45-minute incubation at room temperature using a Tecan Spark multimode plate reader. FP signal (mP) was plotted against the log concentration of the test substances and IC50 values were calculated by nonlinear regression analysis using GraphPad Prism software. For STAT3 FP assay. A=≤100 nM; B=>100-1000 nM; C=>1-10 μM; and D=>10 μM.
# STAT6 = target: T2, STAT6 (Homo sapiens, UniProt P42226); test: STAT6 Fluorescence Polarization (FP) Assay; type: binding; settings: recombinant STAT6(W123-T658) 250 nM; probe 5-FAM-Ap[…]-NH2 2 nM; 45 min, room temperature; read-out: STAT6 FP IC50
# T2 construct: Recombinant STAT6 protein (STAT6(W123-T658))
# T2 sequence (P42226 123-658): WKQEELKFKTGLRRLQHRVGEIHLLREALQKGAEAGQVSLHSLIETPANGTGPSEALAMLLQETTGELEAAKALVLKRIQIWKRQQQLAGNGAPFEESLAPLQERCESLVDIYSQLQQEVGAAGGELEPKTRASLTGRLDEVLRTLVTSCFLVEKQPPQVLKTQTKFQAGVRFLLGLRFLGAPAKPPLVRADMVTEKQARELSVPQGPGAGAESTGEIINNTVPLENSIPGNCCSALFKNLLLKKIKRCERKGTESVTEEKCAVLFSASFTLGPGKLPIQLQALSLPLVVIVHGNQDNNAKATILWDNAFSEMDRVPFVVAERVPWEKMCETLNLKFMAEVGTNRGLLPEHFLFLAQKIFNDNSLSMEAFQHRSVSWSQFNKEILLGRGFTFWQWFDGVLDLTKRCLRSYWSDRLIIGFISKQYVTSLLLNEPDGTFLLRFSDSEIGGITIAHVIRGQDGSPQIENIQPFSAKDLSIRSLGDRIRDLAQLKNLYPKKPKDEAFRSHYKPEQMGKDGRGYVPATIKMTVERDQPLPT
# Method: STAT6 Fluorescence Polarization (FP) Assay
# An FP assay was developed to determine IC50 values for test substances. Recombinant STAT6 protein (STAT6(W123-T658)) at 250 nM was combined with a fluorescently labeled, phosphotyrosine peptide probe (5-FAM-Ap[…]-NH2) at 2 nM in FP buffer (10 mM HEPES pH 7.4, 50 mM NaCl, 1 mM EDTA, 0.05% Tween 20, 2 mM DTT), 50 μL of STAT6-probe mixture was added to serial diluted compounds in black, 96-well plates (Greiner BioOne 655076) to a final concentration of 1% DMSO. Reaction components were mixed, and FP was measured after 45-minute incubation at room temperature using a Tecan Spark multimode plate reader. FP signal (mP) was plotted against the log concentration of the test substances and IC50 values were calculated by nonlinear regression analysis using GraphPad Prism software. For STAT6 FP assay. A=≤300 nM; B=>300-3000 nM; C=>3-30 μM; and D=>30 μM.
# pSTAT6 = target: T3, pSTAT6 (Homo sapiens, UniProt P42226); test: MSD-pSTAT-PBMC Assay, pSTAT6 (IL-4 stimulated PBMC); type: cell-based; settings: compound 3 hrs, then 1 ng/mL IL-4 for 10 min, pY641-STAT6, read-out: pSTAT6 IC50
# T3 construct: pY641-STAT6 MSD read-out
# T3 sequence (P42226 1-847): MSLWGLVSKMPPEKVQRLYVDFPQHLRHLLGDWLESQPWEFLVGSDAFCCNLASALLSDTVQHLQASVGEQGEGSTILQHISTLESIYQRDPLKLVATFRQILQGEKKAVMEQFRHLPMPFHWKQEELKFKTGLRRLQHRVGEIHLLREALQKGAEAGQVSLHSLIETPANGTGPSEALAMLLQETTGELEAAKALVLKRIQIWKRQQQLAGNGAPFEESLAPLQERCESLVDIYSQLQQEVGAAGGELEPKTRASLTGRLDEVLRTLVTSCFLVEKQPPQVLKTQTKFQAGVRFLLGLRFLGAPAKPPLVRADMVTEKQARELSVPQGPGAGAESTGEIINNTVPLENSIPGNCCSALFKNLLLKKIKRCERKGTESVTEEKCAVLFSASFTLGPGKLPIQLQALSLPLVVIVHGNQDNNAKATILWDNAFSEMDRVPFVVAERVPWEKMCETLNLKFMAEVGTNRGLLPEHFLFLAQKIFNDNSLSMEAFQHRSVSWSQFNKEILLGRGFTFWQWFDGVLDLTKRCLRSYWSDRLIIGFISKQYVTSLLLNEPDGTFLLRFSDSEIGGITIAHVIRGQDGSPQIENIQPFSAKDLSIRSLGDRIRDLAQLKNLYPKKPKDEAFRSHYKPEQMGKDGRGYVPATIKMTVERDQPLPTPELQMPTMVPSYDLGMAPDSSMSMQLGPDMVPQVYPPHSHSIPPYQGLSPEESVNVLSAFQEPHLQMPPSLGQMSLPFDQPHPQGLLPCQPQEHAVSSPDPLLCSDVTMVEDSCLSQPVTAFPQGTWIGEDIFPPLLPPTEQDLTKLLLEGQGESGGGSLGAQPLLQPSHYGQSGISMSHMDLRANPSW
# Source text: Cryopreserved Peripheral Blood Mononuclear Cells (PBMC) are from AllCells. Recombinant Human IL-4 and IL-6 are from Peprotech. Mouse monoclonal anti-STAT3 antibody, rabbit monoclonal anti-pY705-STAT3 antibody, rabbit monoclonal Anti-pY641-STAT6 antibody, and lysis buffer are from Cell Signaling Technology (CST). Mouse monoclonal anti-STAT6 antibody is from BioLegend. Assay plates, blocker, and anti-rabbit secondary antibody are from Meso Scale Discovery (MSD).
# Cryopreserved PBMCs were thawed out and allowed to recover overnight in IMDM+10% heat-inactivated FBS prior to plating 50,000 (STAT3) or 25,000 (STAT6) cells per well in 96-well U-bottom tissue culture plates. Cells were treated with compound for 3 hrs. then stimulated with 10 ng/mL IL-6 (STAT3) or 1 ng/mL IL-4 (STAT6) for 10 min. Cells were then spun down and washed with ice-cold PBS prior to lysing the cell pellet with 1× lysis buffer (CST) with 1×HALT protease and phosphatase inhibitor cocktail (Thermo). Lysates were transferred to and incubated overnight at 4° C. with shaking in QuickPlex 96-well high bind assay plates (MSD) pre-coated overnight with 30 μL per well of 0.6 μg/mL mouse monoclonal anti-STAT3 antibody (STAT3) or 2 μg/mL mouse monoclonal anti-STAT6 antibody (STAT6) in 1×PBS, and pre-blocked for 1 hour with 3% Blocker-A (MSD). Captured protein in the assay plates were then washed and probed with 25 μL per well of 0.25 μg/ml rabbit monoclonal anti-pY705-STAT3 antibody (STAT3) or 0.18 μg/ml rabbit monoclonal Anti-pY641-STAT6 antibody (STAT6) in 1% Blocker-A for 1 hour at room temperature with shaking, then washed and probed with 25 ul per well of 1 ug/ml Sulfo-TAG Labeled Goat Anti-Rabbit Antibody (MSD) in 1% Blocker-A for 1 hour at room temperature with shaking. Assay plates were then washed and 150 μL of 1× Read Buffer-T (MSD) was added to each well prior to reading on an SQ120 MSD Plate Reader. Assay signal from each sample was subtracted by the signal from unstimulated control wells and normalized to DMSO control wells. IC50 values were calculated using Graph Pad Prism Dose-Response Nonlinear Regression with variable slope. For both pSTAT3 and pSTAT6 A=≤100 nM; B=>100-1000 nM; C=>1000-3000 nM; and D=>3 μM.
# T1 sequence (P40763 127-722 limits assumed): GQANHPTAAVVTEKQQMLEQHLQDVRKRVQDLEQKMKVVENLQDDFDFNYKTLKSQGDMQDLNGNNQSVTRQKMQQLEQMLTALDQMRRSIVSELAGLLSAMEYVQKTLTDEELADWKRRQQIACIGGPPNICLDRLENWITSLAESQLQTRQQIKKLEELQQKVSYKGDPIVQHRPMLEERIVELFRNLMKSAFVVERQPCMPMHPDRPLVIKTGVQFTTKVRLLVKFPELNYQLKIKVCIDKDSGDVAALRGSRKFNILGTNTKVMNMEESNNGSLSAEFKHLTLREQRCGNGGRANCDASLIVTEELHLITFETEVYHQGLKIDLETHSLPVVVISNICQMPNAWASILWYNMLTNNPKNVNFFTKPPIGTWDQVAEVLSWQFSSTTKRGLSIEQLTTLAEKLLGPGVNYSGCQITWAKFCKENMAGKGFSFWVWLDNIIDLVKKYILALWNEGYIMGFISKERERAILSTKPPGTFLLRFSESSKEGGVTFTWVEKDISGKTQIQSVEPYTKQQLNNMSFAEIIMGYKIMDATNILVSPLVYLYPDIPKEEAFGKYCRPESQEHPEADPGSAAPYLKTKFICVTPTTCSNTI
compound,measurement,setting,value
"Cc1ccc2onc(C(=O)N3CC[C@H]4CC[C@@H](C(=O)N(C)CCCC(=O)N[C@H](C(=O)N5C[C@H](O)C[C@H]5C(=O)N[C@@H](C)c5ccc(-c6scnc6C)cc5)C(C)(C)C)N4C(=O)[C@@H](NC(=O)c4ccc5ccc(C(F)(F)P(=O)(O)O)cc5c4)C3)c2c1 [Compound 29, (difluoro(7-(((5S,8S,10aR)-8-((4-(((S)-1-((2S,4R)-4-hydroxy-2-(((S)-1-(4-(4-methylthiazol-5-yl)phenyl)ethyl)carbamoyl)pyrrolidin-1-yl)-3,3-dimethyl-1-oxobutan-2-yl)amino)-4-oxobutyl)(methyl)carbamoyl)-3-(5-methylbenzo[d]isoxazole-3-carbonyl)-6-oxodecahydropyrrolo[1,2-a][1,5]diazocin-5-yl)carbamoyl)naphthalen-2-yl)methyl)phosphonic acid]",pIC50,STAT3,5.00 to 6.00
same,pIC50,STAT6,> 6.52
same,pIC50,pSTAT6,< 5.52
"Cc1ccc2onc(C(=O)N3CC[C@H]4CC[C@@H](C(=O)N(C)CCCCOc5ccc(C6CCC(=O)NC6=O)cc5)N4C(=O)[C@@H](NC(=O)c4ccc5ccc(C(F)(F)P(=O)(O)O)cc5c4)C3)c2c1 (stereo partly drawn) [Compound 30, ((7-(((5S,8S,10aR)-8-((4-(4-(2,6-dioxopiperidin-3-yl)phenoxy)butyl)(methyl)carbamoyl)-3-(5-methylbenzo[d]isoxazole-3-carbonyl)-6-oxodecahydropyrrolo[1,2-a][1,5]diazocin-5-yl)carbamoyl)naphthalen-2-yl)difluoromethyl)phosphonic acid]",pIC50,STAT3,5.00 to 6.00
same,pIC50,STAT6,> 6.52
same,pIC50,pSTAT6,< 5.52
"Cc1ccc2onc(C(=O)N3CC[C@H]4CC[C@@H](C(=O)NCCOc5cc(C(C(=O)N6C[C@H](O)C[C@H]6C(=O)N[C@H](C)c6ccc(-c7scnc7C)cc6)C(C)C)on5)N4C(=O)[C@@H](NC(=O)c4ccc5ccc(C(F)(F)P(=O)(O)O)cc5c4)C3)c2c1 (stereo partly drawn) [Compound 32, (difluoro(7-(((5S,8S,10aR)-8-((2-((5-(1-((2S,4R)-4-hydroxy-2-(((R)-1-(4-(4-methylthiazol-5-yl)phenyl)ethyl)carbamoyl)pyrrolidin-1-yl)-3-methyl-1-oxobutan-2-yl)isoxazol-3-yl)oxy)ethyl)carbamoyl)-3-(5-methylbenzo[d]isoxazole-3-carbonyl)-6-oxodecahydropyrrolo[1,2-a][1,5]diazocin-5-yl)carbamoyl)naphthalen-2-yl)methyl)phosphonic acid]",pIC50,STAT3,5.00 to 6.00
same,pIC50,STAT6,5.52 to 6.52
same,pIC50,pSTAT6,< 5.52
"Cc1ccc2onc(C(=O)N3CC[C@H]4CC[C@@H](C(=O)N5CCN(c6cc(C(C(=O)N7C[C@H](O)C[C@H]7C(=O)N[C@H](C)c7ccc(-c8scnc8C)cc7)C(C)C)on6)CC5)N4C(=O)[C@@H](NC(=O)c4ccc5ccc(C(F)(F)P(=O)(O)O)cc5c4)C3)c2c1 (stereo partly drawn) [Compound 33, (difluoro(7-(((5S,8S,10aR)-8-(4-(5-(1-((2S,4R)-4-hydroxy-2-(((R)-1-(4-(4-methylthiazol-5-yl)phenyl)ethyl)carbamoyl)pyrrolidin-1-yl)-3-methyl-1-oxobutan-2-yl)isoxazol-3-yl)piperazine-1-carbonyl)-3-(5-methylbenzo[d]isoxazole-3-carbonyl)-6-oxodecahydropyrrolo[1,2-a][1,5]diazocin-5-yl)carbamoyl)naphthalen-2-yl)methyl)phosphonic acid]",pIC50,STAT3,5.00 to 6.00
same,pIC50,STAT6,> 6.52
same,pIC50,pSTAT6,< 5.52
"Cc1ccc2onc(C(=O)N3CC[C@H]4CC[C@@H](C(=O)N5CCN(c6ccc7c(c6)[nH]c(=O)n7C6CCC(=O)NC6=O)CC5)N4C(=O)[C@@H](NC(=O)c4ccc5ccc(C(F)(F)P(=O)(O)O)cc5c4)C3)c2c1 (stereo partly drawn) [Compound 34, ((7-(((5S,8S,10aR)-8-(4-(1-(2,6-dioxopiperidin-3-yl)-2-oxo-2,3-dihydro-1H-benzo[d]imidazol-5-yl)piperazine-1-carbonyl)-3-(5-methylbenzo[d]isoxazole-3-carbonyl)-6-oxodecahydropyrrolo[1,2-a][1,5]diazocin-5-yl)carbamoyl)naphthalen-2-yl)difluoromethyl)phosphonic acid]",pIC50,STAT3,5.00 to 6.00
same,pIC50,STAT6,> 6.52
same,pIC50,pSTAT6,< 5.52
"Cc1ccc2onc(C(=O)N3CC[C@H]4CC[C@@H](C(=O)Nc5cccc6c5CN(C5CCC(=O)NC5=O)C6=O)N4C(=O)[C@@H](NC(=O)c4ccc5ccc(C(F)(F)P(=O)(O)O)cc5c4)C3)c2c1 (stereo partly drawn) [Compound 35, ((7-(((5S,8S,10aR)-8-((2-(2,6-dioxopiperidin-3-yl)-1-oxoisoindolin-4-yl)carbamoyl)-3-(5-methylbenzo[d]isoxazole-3-carbonyl)-6-oxodecahydropyrrolo[1,2-a][1,5]diazocin-5-yl)carbamoyl)naphthalen-2-yl)difluoromethyl)phosphonic acid]",pIC50,STAT3,< 5.00
same,pIC50,STAT6,> 6.52
same,pIC50,pSTAT6,< 5.52

# — patent US20260308186A1, “STAT DEGRADERS AND USES THEREOF” (Recludix Pharma, Inc., priority 2023, published 2026)
